Data taken from US4981855A, “Medicament for psoriasis” (Takeda Chemical Industries, Ltd., priority 1988, dated 1991).

Assays:
[1] = system: Type III Allergic Reaction (Reversed Passive Arthus Reaction); experiment: Type III allergic reaction (reversed passive Arthus reaction) in rats, oral (Experiment 1); format: in vivo, Rat (Jcl:SD); conditions: Rat; for inhibition in vivo at 3 mg/kg: 1 h, 3 mg/kg P.O., one hour before egg albumin, blue spot area vs. control, * P < 0.05, ** P < 0.01, read-out: Inhibition rate (%); for ED50: P.O., read-out: ID50 values
Experimental: Effect on Type III Allergic Reaction (Reversed Passive Arthus Reaction) in Rats
A group consisting of six Jcl:SD rats (7 week old, male) was used. The hair of the back of the animals was cut, under ether anesthesia, and 1 ml each of a 0.5% solution of egg albumin in physiological saline solution was injected into the tail vein of each test animal, followed by intradermal injection of 0.1 ml of rabbit anti-egg albumin antiserum at each of the left and right sides of the back and a further intradermal injection of 0.1 ml of physiological saline solution at the left side. Three hours later, each animal was intraveneously injected with 1 ml of 1% Evans' blue physiological saline solution. Thirty minutes later, the test animals were exfoliated and the area(mm^2) of each of the blue spots was measured. […] By comparing the area(mm^2) of the blue spot in the test group (treated group) with that of the control group (untreated group), inhibition rate was determined.

[2] = system: Reversed Passive Arthus Reaction; experiment: Rat reversed passive Arthus reaction, percutaneous ointment (Experiment 2); format: in vivo, Rat (Jcl:SD); conditions: for Inhibition rate (%): ointment (white petrolatum base)
Experimental: A group consisting of six Jcl:SD rats (7 week old, male) was used. The hair of the back of the animals was cut, under ether anesthesia, and 1 ml each of a 0.5% solution of egg albumin in physiological saline solution was injected into the tail vein of each test animal, followed by intradermal injection of 0.1 ml of rabbit anti-egg albumin antiserum at each of the left and right sides of the back and a further intradermal injection of 0.1 ml of physiological saline solution at the left side. Three hours later, each animal was intraveneously injected with 1 ml of 1% Evans' blue physiological saline solution. Thirty minutes later, the test animals were exfoliated and the area(mm^2) of each of the blue spots was measured. The test sample in a dose of 3 mg/kg was orally administered one hour before the injection of egg albumin. By comparing the area(mm^2) of the blue spot in the test group (treated group) with that of the control group (untreated group), inhibition rate was determined.
In place of the oral administration of 3 mg/kg of each specimen, two type of ointments (of which base is white petrolatum) different in specimen content as given in Table 2 and control petrolatum were applied to the reaction sites in an experiment in a similar manner as in Experiment 1.

[3] = Acute toxicity in mice (Experiment 3); format: in vivo, Mouse (Jcl:ICR); conditions: mouse, in vivo
Description: (§1) The acute toxicity of the compound (A) was examined by using Jcl:ICR mice and JcL:Wistar rats.

Jcl:ICR mice = experiment: Acute toxicity in mice (Experiment 3); format: in vivo, Mouse (Jcl:ICR); conditions: mice and rats; intraperitoneal, subcutaneous and oral (Table 3)
Description: as §1

[4] = Acute toxicity in rats (Experiment 3); parameters: species or system Rat (JcL:Wistar); conditions: rat, in vivo
Description: as §1

[5] = system: skin of the backs of rabbits (normal skin and damaged skin); experiment: Four-week cumulative skin irritation test in rabbits (Experiment 4); format: in vivo, Rabbit; conditions: 0.25 g once a day for 4 weeks
Description: Four-Week Cumulative Skin Irritation Test in Rabbits [Procedure]
0.25 g of each of white petrolatum (placebo) and 2.5% and 5.0% compound (A) ointments (of which base is white petrolatum) was applied to 2.5×2.5cm test sites (normal skin and damaged skin) formed on the skin of the backs of rabbits once a day for 4 weeks. The skin was observed daily according to the method of Draize [J. H. Draize et al., J. Pharmacol. Exp. Therap. 82, 337 (1944)]. On the day succeeding the completion of the administration, postmortem examinations were carried out and histopathologic examinations were conducted for the skin of the administrated sites.

SMILES: CCCn1c(=O)c2c(N(C)C)n(C)nc2n(CCC)c1=O [Compound 4]
- inhibition in vivo at 3 mg/kg [1]: 56%

SMILES: CCCCn1c(=O)n(CCC)c(=O)c2c(NC)n(C(=O)OC)nc21 [Compound (A)]
- Inhibition rate (%) ([2]; 1.25 mg/site, *p < 0.05 vs. control): 46%
- Inhibition rate (%) ([2]; 2.5 mg/site, **p < 0.01 vs. control): 59%
- effect on reversed passive Arthus reaction ([2]; percutaneous administration): significantly depresses the reversed passive Arthus reaction
- LD50 ([3]; ip, female, intraperitoneal): 1260 mg/kg
- LD50 ([3]; ip, male, intraperitoneal): 1040 mg/kg
- LD50 ([3]; po, female): 6310 mg/kg
- LD50 ([3]; po, male): 4650 mg/kg
- LD50 ([3]; sc, female, subcutaneous): > 5000 mg/kg
- LD50 ([3]; sc, male, subcutaneous): > 5000 mg/kg
- acute toxicity (Jcl:ICR mice): low in toxicity and can be safely administered
- LD50 ([4]; ip, female, intraperitoneal): 580 mg/kg
- LD50 ([4]; ip, male, intraperitoneal): 650 mg/kg
- LD50 ([4]; po, female): 2380 mg/kg
- LD50 ([4]; po, male): 2730 mg/kg
- LD50 ([4]; sc, female, subcutaneous): > 6500 mg/kg
- LD50 ([4]; sc, male, subcutaneous): > 6500 mg/kg
- cumulative skin irritation ([5]; 2.5% ointment (white petrolatum base)): no cumulative skin irritation
- cumulative skin irritation ([5]; 5% ointment (white petrolatum base)): no cumulative skin irritation

SMILES: CCCn1c(=O)c2c(N(C)C)nn(C)c2n(CCC)c1=O [Compound 5]
- inhibition in vivo at 3 mg/kg [1]: 53%

SMILES: CCCCn1c(=O)n(CCC)c(=O)c2c(NC)n(C(=O)OC)nc21 [Compound 6]
- inhibition in vivo at 3 mg/kg [1]: 43%
- ED50 [1]: 5.3 mg/kg

SMILES: CCCCn1c(=O)c2c(NC)n(C(=O)OC)nc2n(CCC)c1=O [Compound 7]
- inhibition in vivo at 3 mg/kg [1]: 49%
- ED50 [1]: 3 mg/kg

SMILES: CCCn1c(=O)c2c(NC(C)=O)[nH]nc2n(CCC)c1=O [Compound 3]
- inhibition in vivo at 3 mg/kg [1]: 55%
- ED50 [1]: 2.9 mg/kg

SMILES: CCCn1c(=O)c2c(N)n(C(=O)OC)nc2n(CCC)c1=O [Compound 2]
- inhibition in vivo at 3 mg/kg [1]: 50%
- ED50 [1]: 2.4 mg/kg

SMILES: CCCCn1c(=O)c2c(NC)n(C(=O)OC)nc2n(CCCC)c1=O [Compound 8]
- inhibition in vivo at 3 mg/kg [1]: 30%
- ED50 [1]: 30 mg/kg

SMILES: CCCCn1c(=O)c2c(NC)n(C)nc2n(CCCC)c1=O [Compound 9]
- inhibition in vivo at 3 mg/kg [1]: 31%

SMILES: CCn1c(=O)c2c(N)n(C(=O)OC)nc2n(CC)c1=O [Compound 1]
- inhibition in vivo at 3 mg/kg [1]: 35%
- ED50 [1]: 13.7 mg/kg
